The source of these data is paper PMC1073692, “An Unbiased Cell Morphology–Based Screen for New, Biologically Active Small Molecules” (PLoS Biology, 2005).

For one series, the target named is T1, Fyn (Homo sapiens, UniProt P06241).
T1 construct: made in house; host or cells: bacteria
In words: Kinase disk assay (32P transfer to peptide), Fyn. In kind it is biochemical. On the procedure: (§1) Fyn and p38 kinases were expressed in bacteria and purified as previously described. Protein kinase A and Protein kinase B were obtained commercially (Upstate Cell Signaling Specialties Charlottesville, Virginia, United States). […] Reaction mixtures (27 μl) were spotted onto a phosphocellulose disk and washed with 0.5% H3PO4. The transfer of ^32P was measured by standard scintillation counting. […] When the IC50 value fell between two measured concentrations, it was calculated based on the assumption of an inversely proportional relationship between inhibitor concentration and counts per minute between the two data points.
(§2) IC50 values against Fyn and p38 are given (left), and percentage activity of PKA and PKB in presence of the inhibitors are given (right). Kinase activity was determined using a standardized disk assay based on the P^32 transfer to a synthetic peptide (See Materials and Methods). […] Peptide subrate sequences for each kinase are shown below:
[…] (100 µM) was used as the substrate for Fyn.

A further series deals with T2, p38-α (Homo sapiens, UniProt Q16539).
T2 construct: made in house; host or cells: bacteria
In words: Kinase disk assay (32P transfer to peptide), p38. The note with it: Table S3; […] 100 µM substrate, 11 nM [γ-32P]ATP. It counts as biochemical. The method, then: as §1, §2
[…] (100 µM) was used as the substrate for p38.

In a further series the target is T3, protein kinase A (Homo sapiens, UniProt P17612).
T3 construct: purchased Upstate Cell Signaling Specialties
In words: Kinase disk assay (32P transfer to peptide), PKA. Conditions: remaining kinase activity. It counts as biochemical. On the procedure: as §1, §2
bzRRASLG (100 µM) was used as the susbtrate for PKA.

A further series has as its target T4, protein kinase B (Homo sapiens, UniProt P31749).
T4 construct: purchased Upstate Cell Signaling Specialties
In words: Kinase disk assay (32P transfer to peptide), PKB. Conditions: 25 min; 1 µM inhibitor; remaining kinase activity; read-out: Relative activity @ 1 µM inhibitor PKB. In kind it is biochemical. The method, then: as §1, §2
bzRPRTSSF (100 µM) was used as the susbtrate for PKB.

For series [1], the system named is A549, DU145, HUVEC, SF268 and SKOV3 cells. In words: Cytometrix cell morphology-based screen. The note with it: 24 h, 6 nM to 40 μM, five cell types. The arrangement: species or system human. On the procedure: SKOV3 (ovarian epithelial cancer), A549 (lung epithelial cancer), and SF268 (central nervous system epithelial cancer) were chosen for their broad genetic diversity and obtained from the National Institutes of Health. These human cells were grown and maintained in RMPI medium (Mediatech, Herndon, Virginia, United States) with 5% fetal calf serum (FBS, HyClone, Logan, Utah, United States). DU145 (prostate epithelial cancer) cells ( ATTC, Manassas, Virginia, United States) were maintained in MEM with 5% FBS. HUVEC cells (VEC Technologies, Rensselaer, New York, United States) were maintained in MCDB131 medium (VEC Technologies) with 10% FBS. For the assays 1,000–1,800 trypsinized (Mediatech) cells per well (depending on cell type) were plated in 384-well plates (Corning Costar, Acton, Massachusetts, United States) using a Multidrop (Thermo Labsystems, Beverly, Massachusetts, United States) and incubated for 24 h, the approximate doubling time. Six cell plates were made for each cell line.
Compound stocks were maintained in DMSO. Compound information was stored in ActivityBase (ID Business Solutions, Guildford, United Kingdom). Compounds were serially diluted in 384-well drug plates to achieve eight concentrations diluting 3× in DMSO between wells using a Multimek (Beckman Coulter, Fullerton, California, United States). Wells were reserved on every drug plate for negative and positive controls. Negative-control wells contained DMSO only and the positive-control wells received a titration of paclitaxel, a tubulin stabilizer (Sigma-Aldrich-Fluka, St. Louis, Missouri, United States). […] Small molecules were tested at 40 μM on cells based on the logic that cellular effects on cells at […] concentration are most likely nonspecific and that we would most likely get a full-dose response after eight 3-fold dilutions (6 nM to 40 μM final concentrations).
Compounds were added to cell plates from drug plates. Compound mixed with medium was added to the cells to achieve a 0.4% DMSO concentration on prepared cell plates using a PlateTrak (CCS Packard, Torrance, California, United States). Treated cells were incubated for another 24 h, the compound exposure time.
Cells were stained for visualization of the nuclei, Golgi apparatus, and microtubules. Cells were fixed with 4% formaldehyde (Polysciences, Warrington, Pennsylvania, United States) for 1 h; washed in TBS (Teknova, Half Moon Bay, California, United States); blocked in 0.01% Triton X-100 (ICN Biomedicals, Irvine, California, United States) and 1% BSA in TBS (Teknova) and then left to incubate for 1 h; stained with 0.01% Triton X-100, 0.1% BSA, 5 μg/ml Hoechst 33342 (Molecular Probes, Eugene, Oregon, United States), 5 μg/ml FITC-Lectin Lens Culinaris (Sigma-Aldrich-Fluka), and 3 μg/ml Rhodamine Red–labeled monoclonal antibody DM1α (courtesy of Tim Stearns) for 1 h; and then washed in TBS. All of these steps were performed with a PlateTrak using an ELx405 microplate washer (Bio-Tek Instruments, Winooski, Vermont, United States). This was done in triplicate for each cell line.
Cells were imaged on an inverted Axiovert 100M epifluorescent microscope (Carl Zeiss, Oberkochen, Germany) with a 5× objective and a Xenon lamp (Sutter Instruments, Novato, California, United States). A 5× magnification was chosen (rather than 40×) primarily as a function of the need to acquire a large number of individual cells in order to gather statistically relevant data on relatively rare subpopulations. The number of cells in a randomly acquired 40× image is not sufficient to make meaningful statistical measurements across many cells. Metamorph (Universal Imaging, Downingtown, Pennsylvania, United States) was used to control the motorized x, y, z stage (Prior Scientific, Rockland, Massachusetts, United States) that moved the plate to each well, autofocused, and took three successive fluorescent images with an Orca 100 camera (Hamamatsu, Hamamatsu City, Japan). […]

Series [2] in a line: Solubility limit in the CBR1 assay. In kind it is physicochemical.
A further series addresses T5, human CBR1 (Homo sapiens, UniProt P16152).
T5 sequence (P16152 1-277): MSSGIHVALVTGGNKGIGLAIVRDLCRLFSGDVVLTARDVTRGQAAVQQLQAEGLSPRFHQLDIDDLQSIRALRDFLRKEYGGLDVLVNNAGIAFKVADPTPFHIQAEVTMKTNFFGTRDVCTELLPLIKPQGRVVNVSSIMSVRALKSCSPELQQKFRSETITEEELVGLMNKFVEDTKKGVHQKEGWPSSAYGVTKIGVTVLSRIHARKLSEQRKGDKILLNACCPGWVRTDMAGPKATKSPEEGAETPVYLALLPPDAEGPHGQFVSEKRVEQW
In words: CBR1 assay (NADPH-dependent reduction of menadione, spectrophotometric).

Values after ≈ are worked out from the molar mass of the structure shown. Read-outs that look alike come from different tables or passages of the source.

T1 sequence (P06241 whole entry, species assumed): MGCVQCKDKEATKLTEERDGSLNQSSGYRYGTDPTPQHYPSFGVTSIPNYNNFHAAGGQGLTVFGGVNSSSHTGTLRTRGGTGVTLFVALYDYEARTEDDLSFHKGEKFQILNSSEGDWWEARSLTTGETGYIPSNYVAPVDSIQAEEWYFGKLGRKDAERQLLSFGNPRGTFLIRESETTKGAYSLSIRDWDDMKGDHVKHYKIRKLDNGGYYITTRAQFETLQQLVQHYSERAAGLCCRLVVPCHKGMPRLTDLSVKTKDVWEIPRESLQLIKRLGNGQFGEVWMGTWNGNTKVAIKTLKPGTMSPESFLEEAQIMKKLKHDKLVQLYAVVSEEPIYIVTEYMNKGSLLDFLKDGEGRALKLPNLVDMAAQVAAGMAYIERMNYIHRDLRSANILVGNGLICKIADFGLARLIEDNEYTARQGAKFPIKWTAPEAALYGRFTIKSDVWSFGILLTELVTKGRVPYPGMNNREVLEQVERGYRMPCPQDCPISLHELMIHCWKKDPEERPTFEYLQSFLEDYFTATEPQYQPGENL
T2 sequence (Q16539 whole entry): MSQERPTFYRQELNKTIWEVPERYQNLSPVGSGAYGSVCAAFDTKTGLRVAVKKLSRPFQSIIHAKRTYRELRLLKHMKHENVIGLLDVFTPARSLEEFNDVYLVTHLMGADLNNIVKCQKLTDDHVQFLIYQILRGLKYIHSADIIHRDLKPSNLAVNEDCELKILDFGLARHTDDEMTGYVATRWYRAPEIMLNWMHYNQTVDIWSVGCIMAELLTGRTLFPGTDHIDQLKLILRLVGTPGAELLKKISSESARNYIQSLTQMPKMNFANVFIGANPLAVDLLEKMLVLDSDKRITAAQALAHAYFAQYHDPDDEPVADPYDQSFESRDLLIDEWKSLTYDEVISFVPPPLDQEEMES
T4 sequence (P31749 whole entry, species assumed): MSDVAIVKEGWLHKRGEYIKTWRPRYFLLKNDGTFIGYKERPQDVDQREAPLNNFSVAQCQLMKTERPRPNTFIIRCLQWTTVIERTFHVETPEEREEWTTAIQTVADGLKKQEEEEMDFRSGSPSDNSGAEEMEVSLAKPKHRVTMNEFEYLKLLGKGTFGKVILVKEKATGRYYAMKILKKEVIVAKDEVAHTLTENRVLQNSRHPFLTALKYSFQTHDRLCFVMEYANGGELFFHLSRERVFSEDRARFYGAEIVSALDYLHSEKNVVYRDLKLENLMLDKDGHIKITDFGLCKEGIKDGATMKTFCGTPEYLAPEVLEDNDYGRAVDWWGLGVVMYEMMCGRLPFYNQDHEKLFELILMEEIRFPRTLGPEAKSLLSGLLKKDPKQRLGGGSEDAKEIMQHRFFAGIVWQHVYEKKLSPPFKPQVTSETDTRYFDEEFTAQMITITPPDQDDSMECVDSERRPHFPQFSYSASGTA
Procedure for human CBR1: CBR1 activity was determined spectrophotometrically at 25 °C. The standard assay mixture consisted of 50 mM sodium phosphate (pH 6.8), 200 μM NADPH, and 200 μM menadione in a total volume of 1 ml. Compounds were dissolved in DMSO as 100× stock solutions. Reactions were initiated by the addition of enzyme, and initial rates were determined by monitoring the disappearance of NADPH at 340 nM. Controls without substrates or enzyme were routinely included.

By IC50 is commonly meant the midpoint of a concentration-inhibition curve. As usually defined, the solubility is the concentration that dissolves in the medium under given conditions. Higher therefore signals much dissolved substance. For the compound `CC(C)(C)n1nc(-c2ccccc2)c2c(N)ncnc21` [PP, 1-tert-butyl-3-phenyl-1H-pyrazolo[3,4-d]pyrimidin-4-amine, reference compound], the IC50 on Fyn (Table S3, LEEIYGEFKKK 100 µM substrate, 11 nM [γ-32P]ATP, read-out: IC50 (nM) Fyn) is 110 nM; at Fyn (read-out: IC50 against Fyn (Figure 3)), 50 nM; against p38-α, 4000 nM; on human CBR1 (IC50 against CBR1, 200 μM NADPH, 200 μM menadione, pH 6.8, 25 °C), greater than 200 µM. Also, the “Relative activity @ 1 µM inhibitor PKA” value at protein kinase A worked out at 92%. For the same compound, the activity at 1 µM at protein kinase B was determined as 92%. In addition, the “Cytometrix phenotype (PCA trajectory)” value in series [1] is given as “phenotypic profile comparable to PP2”. The amount in solution in series [2] (solubility) came to 200 µM (≈ 53.5 µg/mL). Further, the “Inhibition of CBR1 activity” value on human CBR1 (up to solubility limit of 200 μM) is “no inhibition”.
